Where two headings read alike, the source gives them in different places. Non-standard residues stand in square brackets, D forms with d. Residues, ends and D or L forms follow the SMILES beside them. *: point of attachment. Dolaproine = CO[C@@H]([C@@H]1CCCN1)[C@@H](C)C(=O)O; Dil = CC[C@H](C)[C@H](NC)[C@@H](CC(=O)O)OC; X1 = C[C@@H](N*)[C@@H](O)c1ccccc1; NMeV = CN[C@H](C(=O)O)C(C)C
Columns and labels:
TOV112D cells = assay: Cell viability / cytotoxicity of RAGE ADCs in TOV112D ovarian cancer cells; assay type: cell-based, human; details: 24 h, free cytotoxin
Protocol: (§1) Endometrial (Ishikawa) or ovarian (TOV112D) cancer cells were cultured in 96-well plates and treated with an extended concentration range of MMAE, MMAF, RAGE MMAE or RAGE MMAF for 24 or 48 h. Data was analysed by non-linear regression and IC50 concentrations determined for each treatment.
Data are presented as box plots showing the median (line), 25th and 75th percentiles (box) and 10th and 90th percentile (whiskers), n=4. Data were analysed by ANOVA and Dunnett's pairwise multiple comparison t-test.
The linkers used in Examples 3 & 4 were directly compared. […] After treatment, cell viability (FIG. 17) was determined by a fluorescence-based cell viability assay (Apotox Glo Triplex assay, Promega) according to the manufacturer's instructions. […] Data were analysed by ANOVA and Dunnett's pairwise multiple comparison t-test. […]
Comparisons of the AA4, HG6 and DF6 ADCs to the SNIPER ADC were made within normal ovarian (HOSEpic) and ovarian cancer (TOV112D and SKOV3) cells, and normal endometrial (Healthy) and endometrial cancer (HEC1A, HEC1B and Ishikawa) cells. Cells were treated for 96 h with 5 μg/ml of each of the ADCs, and cell health monitored as previously described. […] Data are presented as mean (SEM), and were analysed by ANOVA and Dunnett's pairwise multiple comparison t-test.

Ishikawa cells = assay: Cell viability / cytotoxicity of RAGE ADCs in Ishikawa endometrial cancer cells; assay type: cell-based; details: Homo sapiens, read-out: IC50 of drug alone
Protocol: as §1
After treatment, cell viability in both cell lines (FIG. 13), and cell apoptosis in Ishikawa cells (caspase activation; FIG. 14) were determined by a fluorescence-based cell viability assay (Apotox Glo Triplex assay, Promega) according to the manufacturer's instructions. Data are presented as box plots showing the median (line), 25th and 75th percentiles (box) and 10th and 90th percentile (whiskers), n=4. Data were analysed by ANOVA and Dunnett's pairwise multiple comparison t-test. […]

RAGE = RAGE protein expression by immunohistochemistry in endometrial biopsies of patients taking tamoxifen; assay type: in vivo, human
Protocol: RAGE protein expression was measured by Immunohistochemistry in endometrial biopsies from patients diagnosed with endometrial hyperplasia, Type I or Type II endometrial cancer (EC), postmenopausal controls as well as breast cancer patients taking tamoxifen as part of their treatment that have developed, or not, endometrial cancer. 138 patients were grouped as follows: PM (n=25, median=0.2), Hyperplasia (n=21, median=5.5), type I EC (n=18, median=1.5), type II EC (n=17, median=2), TX no EC (n=19, median=4), type I EC plus TX (n=21, median=4) and type II EC plus TX (n=17, median=0.2).
IHC samples were scored blind by three independent observers. Values shown are median IHC scores and statistical analysis was performed using a Mann-Whitney test *p<0.05, **p<0.01, ***p<0.001, compared to PM control.

| Structure (SMILES) | IC50 of drug alone (TOV112D cells) | IC50 (Ishikawa cells; 24 h) | IC50 (Ishikawa cells; 48 h) | RAGE expression, median IHC score (RAGE; breast cancer patients taking tamoxifen, no endometrial cancer (TX no EC), n=19) | effect on endometrial RAGE expression (RAGE; endometrium from EC patients taking vs not taking tamoxifen) | RAGE expression, median IHC score (RAGE; type I EC plus TX, n=21) | RAGE expression, median IHC score (RAGE; type II EC plus TX, n=17) |
| --- | --- | --- | --- | --- | --- | --- | --- |
| CC[C@H](C)[C@@H]([C@@H](CC(=O)N1CCC[C@H]1[C@H](OC)[C@@H](C)C(=O)N[C@H](C)[C@@H](O)c1ccccc1)OC)N(C)C(=O)[C@@H](NC(=O)[C@@H](NC)C(C)C)C(C)C [MMAE, (S)—N-((3R,4S,5S)-1-((S)-2-((1R,2R)-3-(((1S,2R)-1-hydroxy-1-phenylpropan-2-yl)amino)-1-methoxy-2-methyl-3-oxopropyl)pyrrolidin-1-yl)-3-methoxy-5-methyl-1-oxoheptan-4-yl)-N,3-dimethyl-2-((S)-3-methyl-2-(methylamino)butanamido)butanamide] (H-[NMeV]V[Dil][Dolaproine]-X1) | greater than the top concentration tested | 1400 nM | 460 nM |  |  |  |  |
| CC[C@H](C)[C@@H]([C@@H](CC(=O)N1CCC[C@H]1[C@H](OC)[C@@H](C)C(=O)N[C@@H](Cc1ccccc1)C(=O)O)OC)N(C)C(=O)[C@@H](NC(=O)[C@@H](NC)C(C)C)C(C)C [MMAF, (S)-2-((2R,3R)-3-((S)-1-((3R,4S,5S)-4-((S)—N,3-dimethyl-2-((S)-3-methyl-2-(methylamino)butanamido)butanamido)-3-methoxy-5-methylheptanoyl)pyrrolidin-2-yl)-3-methoxy-2-methylpropanamido)-3-phenylpropanoic acid] (H-[NMeV]V[Dil][Dolaproine]F-OH) | greater than the top concentration tested | 1300 nM | 630 nM |  |  |  |  |
| CC/C(=C(\c1ccccc1)c1ccc(OCCN(C)C)cc1)c1ccccc1 [tamoxifen] |  |  |  | 4 | upregulation of RAGE | 4 | 0.2 |
